Results on six compounds are retold here after PubChem BioAssay AID1745844 (Carcinogenic Potency Database (CPDB), 2022).

The subject of this data set is rodent lifetime carcinogenesis bioassay, tumor incidence TD50. In words: chronic cancer bioassays in animals – CPDB, compiled studies (AID 1745844).

Molecules are shown by their SMILES. Values joined by “and” are separate entries in the source; they are usually repeats but may differ in a detail not shown here. Equal entries are not always repeated. Active and inactive are the calls of the source. The rule behind the calls is not given here.

As for `Cc1c([N+](=O)[O-])c(C)c([N+](=O)[O-])c(C(C)(C)C)c1[N+](=O)[O-]`, the TD50 is, setting by setting: (mouse, strain B6C3F1, females, in feed, site: Harderian gland, lesion: several types, types named in the paper, dosed 80 weeks, study length 90 weeks) 2250 mg/kg/day; (mouse, strain B6C3F1, females, in feed, site: all sites, lesion: lymphoma, dosed 80 weeks, study length 90 weeks) 1300 mg/kg/day; (mouse, strain B6C3F1, females, in feed, site: any site (literature study), lesion: malignant tumor, dosed 80 weeks, study length 90 weeks) 418 mg/kg/day; (mouse, strain B6C3F1, females, in feed, site: liver, lesion: hepatocellular adenoma, dosed 80 weeks, study length 90 weeks) 234 mg/kg/day; (mouse, strain B6C3F1, females, in feed, site: liver, lesion: hepatocellular carcinoma, dosed 80 weeks, study length 90 weeks) 2190 mg/kg/day; (mouse, strain B6C3F1, females, in feed, site: liver, lesion: several types, types named in the paper, dosed 80 weeks, study length 90 weeks) 203 mg/kg/day. Further, the TD50 is, setting by setting: (mouse, strain B6C3F1, females, in feed, site: lung, lesion: adenoma, dosed 80 weeks, study length 90 weeks) 1630 mg/kg/day; (mouse, strain B6C3F1, females, in feed, site: lung, lesion: carcinoma, dosed 80 weeks, study length 90 weeks) 6650 mg/kg/day; (mouse, strain B6C3F1, females, in feed, site: lung, lesion: several types, types named in the paper, dosed 80 weeks, study length 90 weeks) 1300 mg/kg/day; (mouse, strain B6C3F1, females, in feed, site: uterus, lesion: endometrial stromal sarcoma, dosed 80 weeks, study length 90 weeks) 533 mg/kg/day; (mouse, strain B6C3F1, males, in feed, site: Harderian gland, lesion: adenoma, dosed 80 weeks, study length 90 weeks) 383 mg/kg/day; (mouse, strain B6C3F1, males, in feed, site: Harderian gland, lesion: several types, types named in the paper, dosed 80 weeks, study length 90 weeks) 425 mg/kg/day. Moreover, the TD50 is, setting by setting: (mouse, strain B6C3F1, males, in feed, site: any site (literature study), lesion: malignant tumor, dosed 80 weeks, study length 90 weeks) 334 mg/kg/day; (mouse, strain B6C3F1, males, in feed, site: liver, lesion: hepatocellular adenoma, dosed 80 weeks, study length 90 weeks) 232 mg/kg/day; (mouse, strain B6C3F1, males, in feed, site: liver, lesion: hepatocellular carcinoma, dosed 80 weeks, study length 90 weeks) 313 mg/kg/day; (mouse, strain B6C3F1, males, in feed, site: liver, lesion: several types, types named in the paper, dosed 80 weeks, study length 90 weeks) 92.1 mg/kg/day; (mouse, strain B6C3F1, males, in feed, site: lung, lesion: adenoma, dosed 80 weeks, study length 90 weeks) 1200 mg/kg/day.
Take `CC1=C(/C=C/C(C)=C/C=C/C(C)=C/C=C/C=C(C)/C=C/C=C(C)/C=C/C2=C(C)CCCC2(C)C)C(C)(C)CCC1`: the TD50 (mouse, strain Charles River CD1, females, in feed, site: liver, lesion: hepatocellular adenoma, dosed 105 weeks, study length 105 weeks) is 15900 mg/kg/day (inactive); the TD50 (mouse, strain Charles River CD1, females, in feed, site: lung, lesion: adenoma, dosed 105 weeks, study length 105 weeks) was 93600 mg/kg/day (inactive); the TD50 (mouse, strain Charles River CD1, males, in feed, site: liver, lesion: hepatocellular carcinoma, dosed 105 weeks, study length 105 weeks) is 49700 mg/kg/day (inactive); the TD50 (mouse, strain Charles River CD1, males, in feed, site: lung, lesion: adenocarcinoma, dosed 105 weeks, study length 105 weeks) was 26400 mg/kg/day (inactive); the TD50 (mouse, strain Charles River CD1, males, in feed, site: lung, lesion: adenoma, dosed 105 weeks, study length 105 weeks) was 71400 mg/kg/day (inactive). For the same compound, the carcinogen call reads like this: (mouse, strain Charles River CD1, females, in feed, site: liver, lesion: hepatocellular carcinoma, dosed 105 weeks, study length 105 weeks) “negative (inactive)”; (mouse, strain Charles River CD1, females, in feed, site: lung, lesion: adenocarcinoma, dosed 105 weeks, study length 105 weeks) “negative (inactive)”; (mouse, strain Charles River CD1, males, in feed, site: liver, lesion: hepatocellular adenoma, dosed 105 weeks, study length 105 weeks) “negative (inactive)”.
Take `Nc1c(F)c(N)c(F)c(F)c1F`: the TD50 was 6500 mg/kg/day (inactive) (mouse, strain CD-1 HaM/ICR, females, in feed, site: liver, lesion: several types, types named in the paper, dosed 77 weeks, study length 94 weeks); 331 mg/kg/day (mouse, strain CD-1 HaM/ICR, males, in feed, site: any site (literature study), lesion: several types, types named in the paper, dosed 77 weeks, study length 94 weeks); 86.3 mg/kg/day and 109 mg/kg/day (mouse, strain CD-1 HaM/ICR, males, in feed, site: liver, lesion: hepatoma, dosed 77 weeks, study length 94 weeks); 78.3 mg/kg/day (mouse, strain CD-1 HaM/ICR, males, in feed, site: liver, lesion: several types, types named in the paper, dosed 77 weeks, study length 94 weeks); 1130 mg/kg/day (inactive) (mouse, strain CD-1 HaM/ICR, males, in feed, site: lung, lesion: several types, types named in the paper, dosed 77 weeks, study length 94 weeks); 14.6 mg/kg/day (inactive) (rat, strain Charles River CD (Sprague-Dawley), males, in feed, site: any site (literature study), lesion: several types, types named in the paper, dosed 77 weeks, study length 98 weeks). The carcinogen call is, setting by setting: (mouse, strain CD-1 HaM/ICR, females, in feed, site: lung, lesion: several types, types named in the paper, dosed 77 weeks, study length 94 weeks) “negative (inactive)”; (rat, strain Charles River CD (Sprague-Dawley), males, in feed, site: liver, lesion: several types, types named in the paper, dosed 77 weeks, study length 98 weeks) “negative (inactive)”.
As for `NNCc1ccccc1`, the TD50 was 252 mg/kg/day (inactive) (mouse, strain Swiss albino, females, in drinking water, site: liver, lesion: angiosarcoma, dosed 121 weeks, study length 121 weeks); 304 mg/kg/day (mouse, strain Swiss albino, females, in drinking water, site: liver, lesion: several types, types named in the paper, dosed 121 weeks, study length 121 weeks); 85.3 mg/kg/day (mouse, strain Swiss albino, females, in drinking water, site: lung, lesion: several types, types named in the paper, dosed 121 weeks, study length 121 weeks); 86.2 mg/kg/day (mouse, strain Swiss albino, males, in drinking water, site: liver, lesion: several types, types named in the paper, dosed 100 weeks, study length 100 weeks); 711 mg/kg/day (inactive) (mouse, strain Swiss albino, males, in drinking water, site: lung, lesion: adenoma, dosed 100 weeks, study length 100 weeks).
`O=C(O)c1ccc(O)c(O)c1`: the carcinogen call is, setting by setting: (hamster, strain Syrian Golden, females, in feed, site: liver, lesion: one or several types, types not named, dosed 49 weeks, study length 52 weeks) “negative (inactive)”; (hamster, strain Syrian Golden, females, in feed, site: lung, lesion: one or several types, types not named, dosed 49 weeks, study length 52 weeks) “negative (inactive)”.
With `O=CCBr`, the carcinogen call (mouse, strain B6C3F1, females, in drinking water, site: any site (literature study), lesion: several types, types named in the paper, dosed 80 weeks, study length 80 weeks) is “negative (inactive)”; the carcinogen call (mouse, strain B6C3F1, females, in drinking water, site: lung, lesion: one or several types, types not named, dosed 80 weeks, study length 80 weeks) was “negative (inactive)”; the carcinogen call (mouse, strain B6C3F1, males, in drinking water, site: any site (literature study), lesion: several types, types named in the paper, dosed 78 weeks, study length 78 weeks) was “negative (inactive)”; the carcinogen call (mouse, strain B6C3F1, males, in drinking water, site: liver, lesion: one or several types, types not named, dosed 78 weeks, study length 78 weeks) is “negative (inactive)”; the carcinogen call (mouse, strain B6C3F1, males, in drinking water, site: lung, lesion: papillary tumor, dosed 78 weeks, study length 78 weeks) is “negative (inactive)”. The TD50 is 2520 mg/kg/day (inactive) (mouse, strain B6C3F1, females, in drinking water, site: forestomach, lesion: squamous-cell papilloma, dosed 80 weeks, study length 80 weeks); 1020 mg/kg/day (inactive) (mouse, strain B6C3F1, females, in drinking water, site: liver, lesion: hemangioma, dosed 80 weeks, study length 80 weeks); 1890 mg/kg/day (inactive) (mouse, strain B6C3F1, males, in drinking water, site: forestomach, lesion: squamous-cell papilloma, dosed 78 weeks, study length 78 weeks).

Broadly, the TD50 is the 50% point of the dose-response relation for the toxic effect studied.
